Results on five compounds are retold here after patent US20220105072A1, “PHARMACEUTICAL COMPOSITION FOR PREVENTING OR TREATING DIABETES COMPLICATIONS COMPRISING NOVEL CHRYSIN DERIVATIVE COMPOUND AS ACTIVE INGREDIENT” (FRONTBIO INC., priority 2018, published 2022).

Each structure is given as a SMILES string. ≈ marks a conversion by molar mass, not a printed value. Where two headings read alike, the source gives them in different places.

One series concerns AGE formation. In words: Bovine serum albumin-methylglyoxal analysis, AGE formation (intermediate stage). Type of series: biochemical. As for the experimental part: (2) Bovine Serum Albumin—Methylglyoxal Analysis with Respect to AGE Formation (Intermediate Stage)
Bovine serum albumin (50 mg/mL) was incubated with methylglyoxal (100 mM) in a sodium phosphate buffer ([…], pH 7.4) at 37° C. for 24 hours in the presence of various concentrations of compounds (including a control group).
All reagents and samples were sterilized by filtration through […] membrane filters. Fluorescence intensity was measured at an excitation wavelength of 355 nm and an emission wavelength of 460 nm using a luminescence spectrometer LS50B (Perkin-Elmer Ltd., Buckinghamshire, England) (Wu & Yen, 2005). The test was conducted using aminoguanidine as a positive control group. The concentration of each test sample showing 50% inhibitory activity (IC50) was estimated from the least squares regression line of logarithmic concentrations plotted against the residual activity.

The nature of series [1]: Solubility analysis in distilled water (HPLC). Type of series: physicochemical. Conditions: for solubility in water, times higher than Comparative Example 1: versus Comparative Example 1. As for the experimental part: The chrysin and derivatives thereof were dissolved in distilled water and sonicated for 1 hour to maximize solubility and incubated at 37° C. After sonication, undissolved samples were removed by centrifugation (7000 g, 37° C., 5 min). The concentration of the sample was analyzed by HPLC by diluting the supernatant with methanol and filtering through a 0.45 μm disposable syringe filter (Advantec, Dublin, Calif., USA).

The subject of another series is RAW 264.7 cells. Briefly: NO production in LPS-induced RAW 264.7 cells (Griess reagent). The following applies: 24 hours, FIG. 1A. Type of series: cell-based. As for the experimental part: The cytotoxicity of chrysin and derivatives thereof in RAW 264.7 cells was investigated using a MTS assay kit. Cells (1.6×10^4/well) were cultured in 96-well plates and treated with samples (10, 25 and 100 μM) for 12, 24, 48 and 72 hours. After culture, a MTS solution was incubated at 20 μL/well at 37° C. in a humidified 5% CO2 atmosphere for 90 minutes. The optical density at 490 nm was measured three times using an EL-800 universal microplate reader (Bio-Tek Instrument Inc., Winooski, USA). The cell viability of a untreated group was set at 100%. RAW 264.7 cells were seeded at a density of 4×10^5 cells/well on a 12-well plate and incubated with LPS (1 μg/mL) and samples of various concentrations for 24 hours. The concentration of […] (NO) in the medium was measured using a Griess reagent system described by the manufacturer. The production of NO was measured at 570 nm using an EL-800 Universal microplate reader (Bio-Tek Instrument Inc., Winooski, USA) and compared with the nitrite standard calibration curve.

Series [2] concerns formation of Amadori compound. In words: Hemoglobin-δ-gluconolactone assay, formation of Amadori compound (initial stage). Conditions: for initial inhibitory activity, times higher than the positive control: versus positive control group (aminoguanidine). Type of series: biochemical, human. As for the experimental part: (1) Analysis of Hemoglobin-δ-Gluconolactone with Respect to Formation of Amadori Compound (Initial Stage)
Evaluation of the initial stage of protein glycosylation was determined by δ-gluconolactone assay (Rahbar et al., 1999). Briefly, fresh human blood (50 mg/mL) was cultured with glucose (144 mg/mL) in a phosphate buffer (pH 7.4) containing 0.2 g/L of NaN3 under conditions of […] at 37° C. for 7 days.
In certain experiments, an indicated sample was added in a concentration range of 0.01 to 1 mM to a model system. Fluorescence of the sample was measured at maximum excitation and emission values of 355 nm and 460 nm, respectively. The test was conducted using aminoguanidine, a known inhibitor, as a positive control group.

The subject of a further series is crosslinking of AGEs. In words: N-acetyl-glycyl-lysine-methyl ester D-ribose assay, crosslinking of AGEs (late stage). Conditions: for IC50: read-out: IC50 (AGE crosslinking, late stage). The series is classed as biochemical. As for the experimental part: (3) N-acetyl-glycyl-lysine-methyl ester D-ribose assay on crosslinking of AGEs (late stage)
This test was used to evaluate the ability of the sample to inhibit crosslinking of GK peptides in the presence of D-ribose using the method described by Rahbar et al. (1999). The GK peptide (26.7 mg/mL) was incubated with D-ribose (200 mg/mL) under aseptic conditions in sodium phosphate buffer (0.5 M, pH 7.4) at 37° C. for 24 hours. The synthesized compound was added to the model system at a final concentration of 1 mM, excluding the aminoguanidine used at 10 mM and 50 mM. At the end of the incubation period, fluorescence intensity was measured at an excitation wavelength of 335 nm and an emission wavelength of 460 nm.

One may read the IC50 as the concentration that gives 50% inhibition. Regarding `CC(=O)Oc1cc(OC(C)=O)c2c(=O)cc(-c3ccccc3)oc2c1` [Synthesis Example 2, 4-oxo-2-phenyl-4H-chromen-5,7-diyl diacetate], the figures for the IC50 in the series with AGE formation and in the series with crosslinking of AGEs (unit inferred) were 0.91 µM and 22.3 µM, respectively. The compound also yielded a Solubility in water in series [1] (37° C.) of 265 µM. The “solubility in water, times higher than Comparative Example 1” value in series [1] came out at 8.83 times. In addition, the “effect on NO production” value in the series on RAW 264.7 cells is on record as “inhibited NO in a concentration-dependent manner”. The “inhibitory activity against formation of the Amadori compound, times higher than chrysin” value in series [2] (versus chrysin) amounted to 66.96 times. Also, the “initial inhibitory activity, times higher than the positive control” value (“initial inhibitory activity” for short) in series [2] was 422.07 times.

A word on the solubility: it is the concentration that dissolves in the medium under given conditions. With `N=C(N)NN` [Positive control group (Aminoguanidine), aminoguanidine, reference compound], the IC50 with AGE formation came to 137 µM; in the series on crosslinking of AGEs, 1900 µM. The compound further returned a solubility at 1 h in series [1] (distilled water, water, thermodynamic from solid, 37° C.) of 30 µM (≈ 2.22 µg/mL).

In turn, `CC(=O)Oc1cc(O)c2c(=O)cc(-c3ccccc3)oc2c1` [Synthesis Example 1, 5-hydroxy-4-oxo-2-phenyl-4H-chromen-7-yl acetate] came in with an IC50 in the series with AGE formation of 21.6 µM. The compound also came in with a Solubility in water in series [1] (37° C.) of 86 µM. Also, the “solubility in water, times higher than Comparative Example 1” value in series [1] came to 2.87 times. The “initial inhibitory activity” value in series [2] was found to be 4.66 times.

For `COc1cc(OC)c2c(=O)cc(-c3ccccc3)oc2c1` [Synthesis Example 5, 5,7-dimethoxy-2-phenyl-4H-chromen-4-one], the IC50 in the series with AGE formation amounted to 41.8 µM; with crosslinking of AGEs (unit inferred) it was 39.9 µM. In addition, the “initial inhibitory activity” value in series [2] came out at 13.92 times.

For the compound `O=c1cc(-c2ccccc2)oc2cc(O)cc(O)c12` [Comparative Example 1, 5,7-dihydroxy-2-phenyl-4H-chromen-4-one, reference compound], the “activity against AGE formation, times higher than the positive control group” value with AGE formation (versus aminoguanidine) stood at 5.48 times. Further, the Solubility in water in series [1] (37° C.) turned out to be 30 µM (≈ 7.63 µg/mL). The “inhibitory activity (late stage)” value in the series on crosslinking of AGEs (at a concentration of 10.0 mg/mL) is “did not exhibit inhibitory activity”.
